# What was measured:
# [1] = molecular target: T1, human dopamine D2 receptor (Homo sapiens, UniProt P14416); assay: Human D2 receptor binding study ([125I]-iodosulpride, CHO cell membranes); details: [125I]-iodosulpride 0.1 nM, read-out: pKi hD2 (converted)
# T1 construct: expressed in transfected cells; membranes
# Description: (§1) CHO (Chinese Hamster Ovary) cells are stably transfected with the gene encoding the human dopamine D2 or D3 receptor, in accordance with methods known from the literature. The native cells are deficient in the enzyme DHFR (DiHydroFolate Reductase). […] The transfections are carried out using Lipofectin (Gibco). The CHO cells co-transfected with the human D2 receptor and the phleomycin resistance gene are selected for their resistance to the presence of that antibiotic in the culture medium. The cells transfected with the human D3 receptor are selected, in a medium lacking hypoxanthine/thymidine, in the presence of methotrexate. The compositions of the culture media used are: for CHO-D2, DMEM (Dulbecco's Modified Eagle Medium) supplemented with 10% foetal calf serum and hypoxanthine/thymidine; and for CHO-D3, DMEM supplemented with 10% dialysed foetal calf serum. The cells are harvested at confluence and the membranes are then prepared.
# After a few minutes in the presence of 0.2% trypsin, the cells are collected and centrifuged at 2,000 g for 5 minutes. The cell mass, which is re-suspended in 10 mM Tris-HCl buffer pH 7.5 containing 5 mM MgSO4, is then homogenised using a Polytron®. The homogenate is then centrifuged at 50,000 g for 15 minutes, and the sediment is re-suspended by gentle sonication in an incubation buffer having the composition: 50 mM Tris-HCl pH 7.5 containing 120 mM NaCl, 5 mM KCl, 2 mM CaCl2, 5 mM MgCl2. The membranes are then divided into aliquots and stored at −80° C. until the day of the experiment.
# The concentration ranges of each compound include at least seven points determined in triplicate. Each experiment is repeated at least twice.
# The incubation, which lasts for thirty minutes at 30° C., is terminated by rapid filtering through a Brandle apparatus, followed by three consecutive rinsings with Tris-HCl buffer pH 7.4 containing 120 mM NaCl. The filters are collected and then subjected to counting using a gamma counter.
# The results are expressed in the form of pKi (pKi=−logKi).
# [2] = test system: rats having a unilateral lesion of the Substantia nigra; assay: Rotations induced by dopaminergic agonists in rats having a unilateral 6-OH-DA lesion of the Substantia nigra; assay type: in vivo, rat; details: for Contralateral rotations mean ± s.e.m.: recorded for one hour, carrier 53.8 ± 12.8
# [3] = test system: presynaptic dopaminergic autoreceptor; assay: Presynaptic dopaminergic autoreceptor activation: unitary extracellular electrical activity in the ventral tegmentum area of the rat; assay type: in vivo; details: cumulative doses, relative to basal activity = 100%, mean ± s.e.m., n = 5
# Description: Test Recording the Unitary Extracellular Electrical Activity in the Ventral Tegmentum Area of the Rat
# Administration of a dopaminergic agonist decreases neuron discharge frequency in dose-dependent manner. This effect is reversed by haloperidol, a dopaminergic antagonist.
# The rats are anaesthetised using chloral hydrate (400 mg/kg, i.p.) and placed in a stereotactic apparatus (Unimécanique, France) after catheterisation of the femoral vein. The level of anaesthesia is maintained by i.p. administration of chloral hydrate every hour; rectal temperature is held at 37±1° C. by means of a thermostatically controlled heated blanket. A tungsten microelectrode (10 MΩ, 1 μm) is advanced, using an electronic microdrive (Unimécanique, France), into the ventral tegmentum area (AP: −5.5/bregma; L: 0.7; H: 7.0-8.5/dura; Paxinos and Watson atlas, 1986). The potentials of dopaminergic cells are recognised by their morphology (triphasic potentials +/−/+, of a duration greater than 3 msec), their discharge rhythm, whether regular or in bursts of decreasing amplitude, and their discharge frequency, which is from 2 to 8 Hz. A single cell per animal is used for recording.
# After a period ≧5 minutes (basal activity) and an initial injection of carrier (distilled water to which a few drops of dilute lactic acid have been added; pH adjusted to 5 using 1N NaOH), the products of the invention are administered intravenously in cumulatively increasing doses at intervals of 2-3 minutes.
# Data acquisition is performed by the Spike2 software package (Cambridge Electronic Design, England). The discharge frequency is measured over one minute at the maximum change between each injection and is expressed as the percentage change with respect to the basal activity (averaged over the 5 minutes preceding the first treatment), which is defined as 100%. The effect of the products is statistically evaluated by analysis of variance over repeated measurements, followed by a Dunnett's test for comparison of the effects of different doses with the effect of the carrier (distilled water).
# [4] = test system: rat; assay: Forced swimming test in the rat (antidepressive properties); assay type: in vivo; details: for Immobility (sec) mean ± s.e.m.: 30 min before 5-min test, carrier 174.3 ± 9.1
# Excerpt: The forced swimming test (Porsolt R. et al, Eur. J. Pharmacol., 1978, 47, 379-91) is a behavioural test which comprises inducing a state of “despair” in the rat, by placing the naive animal in an enclosure full of water, from which it cannot escape, for a period of fifteen minutes. For the first five to ten minutes, the rat struggles vigorously but finally adopts an immobile posture during the last part of the test. Placed in the same enclosure on the following day, the animal remains immobile for most of the test (5 minutes' duration). Antidepressants reduce the duration of immobility of the rat during the test.
# The experiment is carried out over two days, with a 24-hour interval, on rats having an average weight of 170 g, housed the day before in individual cages, with free access to food and drink.
# On the first day, each rat is placed for fifteen minutes in a glass cylinder (20 cm diameter×40 cm high) filled to a height of 15 cm with water maintained at 25° C. On the second day, the animal is again placed in a cylinder for a period of five minutes; the total period of immobility (in seconds) of the rat is measured. The product or the solvent is administered to the animal thirty minutes before the beginning of the test. The effect of the products is statistically evaluated by analysis of variance over repeated measurements, followed by a Dunnett's test for comparison of the effects of different doses with the effect of the carrier (distilled water).
# [5] = test system: rat; assay: Ultrasonic vocalisation test in the rat (anxiolytic properties); assay type: in vivo; details: for Duration of ultrasonic vocalisations (s) mean ± s.e.m.: ten-minute recording, carrier 254.3 ± 42.1
# Excerpt: When a rat is placed in an environment previously associated with an unpleasant experience (electric shocks to the paws), its anxiety is shown by the emission of inaudible cries (or ultrasonic vocalisations).
# Standard boxes (Coulbourn Instruments), placed in sound-attenuating ventilated enclosures, are provided with a floor composed of electrifiable metal bars (shock generator and scrambler, Med Associates Inc) and with a microphone located in the centre of the ceiling. The ultrasounds are converted into an audible range (bat detector, Buitenbedrijf). The signals modified in that manner are filtered and then processed (RTS software, Engineering Design). The spectrograms obtained are recorded on DAT tapes.
# Male rats of the Wistar strain, weighing 180-200 g on their arrival, are housed in cages of four with free access to food and water, from five days before the start of the study until its end. The procedure employed is divided up into three successive stages separated by 24 hours and called training, selection and test. During the training session, the animals are placed singly in the boxes, where they receive six electric shocks (0.8 mA, 8 s) randomly spaced over a period of seven minutes. Selection comprises placing each animal in a box for two minutes, where they receive a single shock, and putting them back in the box thirty minutes later for a ten-minute session of recording the ultrasonic vocalisations; those animals whose vocalisations last less than 90 seconds are excluded from the remainder of the experiment. The test phase proceeds in a similar manner to the selection stage, with the products or the carrier additionally being administered at the end of the two-minute session. The effect of the products is statistically evaluated by analysis of variance over repeated measurements, followed by a Dunnett's test for comparison of the effects of different doses with the effect of the carrier (distilled water).
# [6] = molecular target: T2, human dopamine D3 receptor (Homo sapiens, UniProt P35462); assay: Human D3 receptor binding study ([125I]-iodosulpride, CHO cell membranes); details: [125I]-iodosulpride 0.2 nM, read-out: pKi hD3 (converted)
# T2 construct: expressed in transfected cells; membranes
# T2 sequence (P35462 whole entry): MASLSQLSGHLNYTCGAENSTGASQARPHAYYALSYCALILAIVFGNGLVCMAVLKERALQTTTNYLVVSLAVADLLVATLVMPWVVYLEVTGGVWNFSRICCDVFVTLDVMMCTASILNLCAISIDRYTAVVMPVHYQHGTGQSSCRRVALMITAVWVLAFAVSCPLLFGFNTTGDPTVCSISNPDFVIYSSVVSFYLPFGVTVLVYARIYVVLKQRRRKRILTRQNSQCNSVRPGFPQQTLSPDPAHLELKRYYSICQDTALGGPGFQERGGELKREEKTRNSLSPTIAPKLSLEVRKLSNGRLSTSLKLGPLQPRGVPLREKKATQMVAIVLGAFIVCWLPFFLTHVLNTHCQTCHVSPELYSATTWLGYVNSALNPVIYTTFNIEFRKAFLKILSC
# Description: as §1
# After a few minutes in the presence of 0.2% trypsin, the cells are collected and centrifuged at 2,000 g for 5 minutes. The cell mass, which is re-suspended in 10 mM Tris-HCl buffer pH 7.5 containing 5 mM MgSO4, is then homogenised using a Polytron®. […]
# The concentration ranges of each compound include at least seven points determined in triplicate. […]
# T1 sequence (P14416 whole entry): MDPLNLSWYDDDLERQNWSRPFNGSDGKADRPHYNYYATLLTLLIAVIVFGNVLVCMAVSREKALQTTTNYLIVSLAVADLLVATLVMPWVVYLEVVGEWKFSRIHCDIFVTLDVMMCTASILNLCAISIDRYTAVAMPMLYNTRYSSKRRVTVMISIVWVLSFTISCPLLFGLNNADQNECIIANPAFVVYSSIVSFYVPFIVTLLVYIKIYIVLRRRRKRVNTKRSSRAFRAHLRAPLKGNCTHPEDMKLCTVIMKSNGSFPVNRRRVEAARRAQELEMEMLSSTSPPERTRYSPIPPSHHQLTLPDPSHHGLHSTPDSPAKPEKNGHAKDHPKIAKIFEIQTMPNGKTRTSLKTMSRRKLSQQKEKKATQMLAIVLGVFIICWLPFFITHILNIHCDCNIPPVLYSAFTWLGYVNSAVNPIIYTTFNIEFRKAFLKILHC
compound,measurement,setting,value
"CCCN1CCO[C@@H]2c3cc4c(cc3CC[C@H]21)COC4=O [Example 4, (4aR,11bR)-4-Propyl-2,3,4,4a,5,6,8,11b-octahydro-10H-furo[3′,4′:6,7]-naphtho[1,2-b][1,4]oxazin-10-one]",Ki,[1],2000 nM
"CCCN1CCO[C@@H]2c3cc4c(cc3CC[C@H]21)CCNC4=O [Example 6, (4aR,12bR)-4-Propyl-2,3,4,4a,5,6,8,9,10,12b-decahydro-11H-isoquino-[6,7-h][1,4]benzoxazin-11-one]",Ki,[1],794 nM
"CN1CCc2cccc3c2[C@H]1Cc1ccc(O)c(O)c1-3 [Apomorphine, apomorphine, reference compound]",Contralateral rotations mean ± s.e.m.,[2]; 0.02 mg/kg s.c.,497.2 ± 91.4
"CCCN1CCO[C@@H]2c3cc4c(cc3CC[C@H]21)CNC4=O (single isomer, unassigned) [Example 2]",Neuron discharge frequency,[3]; 0.125 μg/kg i.v.,91.8 ± 5.2%
same,Neuron discharge frequency,[3]; 0.25 μg/kg i.v.,79.9 ± 5.9 %
same,Neuron discharge frequency,[3]; 0.5 μg/kg i.v.,66.3 ± 5.9 %
same,Neuron discharge frequency,[3]; 1.0 μg/kg i.v.,42.0 ± 7.3 %
same,Neuron discharge frequency,[3]; 2.0 μg/kg i.v.,10.8 ± 8.7 %
same,Neuron discharge frequency,[3]; 4.0 μg/kg i.v.,2.3 ± 2.3 %
same,Neuron discharge frequency,[3]; 8.0 μg/kg i.v.,0.0 ± 0.0 %
same,Immobility (sec) mean ± s.e.m.,[4]; 0.02 mg/kg s.c.,159.4 ± 7.9 s
same,Immobility (sec) mean ± s.e.m.,[4]; 0.04 mg/kg s.c.,122.7 ± 21.2 s
same,Immobility (sec) mean ± s.e.m.,[4]; 0.08 mg/kg s.c.,22.03 ± 5.8 s
same,Effect on period of immobility (in words),"[4]; s.c., rat",reduces the period of immobility of the animal in dose-dependent manner
same,Contralateral rotations mean ± s.e.m.,[2]; 0.00063 mg/kg s.c.,157.4 ± 32.1
same,Contralateral rotations mean ± s.e.m.,[2]; 0.0025 mg/kg s.c.,337.3 ± 48.3
same,Contralateral rotations mean ± s.e.m.,[2]; 0.01 mg/kg s.c.,553.8 ± 138.3
same,Dose from which the product is active in the rotation test,[2]; s.c.,≥ 2.5 µg/kg
same,Duration of ultrasonic vocalisations (s) mean ± s.e.m.,[5]; 0.0025 mg/kg s.c.,274.0 ± 59.0 s
same,Duration of ultrasonic vocalisations (s) mean ± s.e.m.,[5]; 0.04 mg/kg s.c.,28.0 ± 5.6 s
same,Duration of ultrasonic vocalisations (s) mean ± s.e.m.,[5]; 0.63 mg/kg s.c.,22.0 ± 3.2 s
same,Effect on duration of vocalisations (in words),[5]; doses of 0.04 and 0.63 mg/kg s.c.,substantial reduction in the duration of vocalisations
"CCCN1CCO[C@@H]2c3cc4c(=O)[nH]ccc4cc3CC[C@H]21 [Example 8, (4aR,12bR)-4-Propyl-2,3,4,4a,5,6,10,12b-octahydro-11H-isoquino-[6,7-h][1,4]benzoxazin-11-one]",Ki,[1],1260 nM
"CCCN1CCO[C@@H]2c3cc4c(cc3CC[C@H]21)CCOC4=O [Example 5, (4aR,12bR)-4-Propyl-3,4,4a,5,6,8,9,12b-octahydro-2H,11H-pyrano-[4′,3′:6,7]naphtho[1,2-b][1,4]oxazin-11-one]",Ki,[6],126 nM
same,Ki,[1],1580 nM

# — patent US7470683B2, “Tetracyclic compounds” (Les Laboratoires Servier, priority 2006, dated 2008)
